Measurements: PubChem BioAssay AID1996
In brackets after ≈: the same amount, converted by molar mass.

Conditions: buffer; pH 7.4; 200.0 µM

| SMILES | solubility kinetic [µg/mL] |
| --- | --- |
| O=C(O)CC(C(=O)Nc1ccc(F)cc1)C1CCCO1 (stereo not given) | > 42.2 |
| Clc1ncccc1OCc1ccccc1 | 14.6 (≈ 66.5 µM) |
| COc1ccc(CCNC(=O)COC(=O)/C=C/c2ccc3c(c2)OCO3)cc1 | 2.2 (≈ 5.74 µM) |
| O=C(Nc1ccccc1)OCCOc1cccc(Br)c1 | 6.6 (≈ 19.6 µM) |
| CCOC(=O)C(=O)Nc1ncc(Cl)s1 | 34.2 (≈ 146 µM) |
| CN(C)S(=O)(=O)c1ccc(Cl)c(C(=O)OCC(=O)c2ccco2)c1 | > 55.8 |
| Nn1c(SCC(=O)NC2CCS(=O)(=O)C2)nnc1-c1ccco1 (stereo not given) | > 53.6 |
| CC(=O)NS(=O)(=O)c1ccc(NC(=O)C(C)NS(=O)(=O)/C=C/c2ccccc2)cc1 (stereo not given) | 63.3 (≈ 140 µM) |
| CC(=O)c1c(C)oc2ccc(NS(=O)(=O)c3ccc(C)cc3)cc12 | < 0.7 |
| CCN1C(=O)/C(=C\N(C)C)S/C1=N\S(=O)(=O)c1ccccc1 | 49.3 (≈ 145 µM) |
| CCOC(=O)CNC(=O)N1CCCC(N(C)CCc2ccccc2)C1 (stereo not given) | > 52.1 |
| COc1ccc(OCC(O)CNC(=O)Nc2ccccc2)cc1 (stereo not given) | 26.9 (≈ 85 µM) |
| O=C1NC2(CCCCC2)C(=O)N1CC(=O)N1CCc2ccccc21 | 10.6 (≈ 32.4 µM) |
| O=C1CN(C(=O)COC(=O)Cc2ccccc2)c2ccccc2N1 | > 48.7 |
| Cc1ccc(N=C2C(=O)Nc3ccc(Br)cc32)cc1 | 1.1 (≈ 3.49 µM) |
| O=c1c2ccccc2nc2n1C(CSc1ccc(F)cc1)CS2 (stereo not given) | > 51.7 |
| Cc1ccsc1C(=O)NCCc1c[nH]c2ccccc12 | > 42.7 |
| CC(C)c1ccc(C(=O)NC(=S)Nc2ccc3[nH]c(=O)[nH]c3c2)cc1 | 0.5 (≈ 1.41 µM) |
| CCOc1ccc(C(=O)NCC(c2cccs2)N2CCOCC2)cc1 (stereo not given) | > 54.1 |
| Cn1c(N)c(C(=O)COC(=O)CNC(=O)c2ccc(Cl)cc2Cl)c(=O)n(C)c1=O | 10.2 (≈ 23 µM) |
| NC(=O)C1CCCN(C(=S)NCc2ccc3c(c2)OCO3)C1 (stereo not given) | > 48.2 |
| Cc1cccc(C(=O)NCC(c2ccco2)N(C)C)c1 (stereo not given) | 36.9 (≈ 135 µM) |
| COc1ccc2ccccc2c1-c1csc(N)n1 | > 38.4 |
| CCc1ccccc1NC(=O)C1CCN(S(C)(=O)=O)CC1 | > 46.6 |

| SMILES | solubility kinetic [µg/mL] |
| --- | --- |
| COc1ccc(NC(=O)c2cccnc2)cc1OCC(C)C | 27.2 (≈ 90.6 µM) |
| CN(C(=O)c1ccc(F)cc1)c1ccc(OCC(=O)Nc2ccccc2C(=O)O)cc1 | > 63.4 |
| O=C(COC(=O)c1cc(Cl)ccc1Cl)NC1CCCC1 | 23.8 (≈ 75.3 µM) |
| O=C(COC(=O)c1ccccn1)NCCc1ccc(Cl)cc1 | > 47.8 |
| COc1ccccc1/C=C/C(=O)OCC(=O)NC1CCCCCCC1 | 7.4 (≈ 21.4 µM) |
| CNC(=O)NC(=O)COc1c(F)c(F)cc(F)c1F | 38.2 (≈ 136 µM) |
| CC1CCN(CC(O)Cn2c3ccccc3c3ccccc32)CC1 (stereo not given) | 38.7 (≈ 120 µM) |
| COCCCNC1=C(Cl)C(=O)c2ccccc2C1=O | 35.5 (≈ 127 µM) |
| CC(=O)c1sc(C(C)(C)C)cc1NC(=O)c1ccccc1C(=O)O | > 51.8 |
| CCN(CC)S(=O)(=O)c1ccc(N2CCc3ccccc3C2)nc1 | 25.8 (≈ 74.7 µM) |
| N#C/C(=C\c1ccc(N2CCCCC2)o1)C(N)=O | > 36.8 |
| Cc1nc(C(F)(F)F)ccc1C(=O)Nc1ccccc1F | > 44.7 |
| O=C(Nc1cccnc1)c1ccc(Cl)cc1[N+](=O)[O-] | > 41.7 |
| CCC1CCC(N2CCN(c3ccc(F)cc3)CC2)CC1 (stereo not given) | 24.1 (≈ 83 µM) |
| O=C(NCCc1ccccc1)c1cnc(Cl)c(Cl)c1 | 11.6 (≈ 39.3 µM) |
| CN(C(=O)c1ccc2c(c1)CCO2)C(C)(C)C | 23.9 (≈ 102 µM) |
| Cn1c(-c2ccccc2)nc2cnccc21 | > 31.4 |
| Cc1cc(/C=C2\SC(=O)N(C)C2=O)c(C)n1-c1ccc(O)cc1 | 5.6 (≈ 17.1 µM) |
| COc1ccc(CNC(=O)CNC(=O)c2ccc(Br)o2)cc1OC | 53.1 (≈ 134 µM) |
| CC(=O)N(CCc1cccc(C)c1)Cc1cc2ccc(C)cc2[nH]c1=O | 5.1 (≈ 14.6 µM) |
| CC(Sc1nc2ncc(Cl)cc2[nH]1)C(=O)Nc1ccc(C(N)=O)cc1 (stereo not given) | 9.3 (≈ 24.7 µM) |
| CCN(CC)C1CCN(c2nc3nonc3nc2NCCOC)C1 (stereo not given) | 46.8 (≈ 140 µM) |
| Cc1ccc(S(=O)(=O)N2CCOCC2)cc1NC(=O)COc1ccccc1Cc1ccccc1 | 4.4 (≈ 9.16 µM) |
| Cc1cccc(NS(=O)(=O)c2cccc([N+](=O)[O-])c2)n1 | > 44 |

| SMILES | solubility kinetic [µg/mL] |
| --- | --- |
| CCN(C(=O)COC(=O)c1[nH]c(=O)[nH]c(=O)c1N)c1ccccc1 | 39.3 (≈ 118 µM) |
| CCOc1ccccc1NC(=O)C1CCN(S(C)(=O)=O)CC1 | > 49 |
| O=[N+]([O-])c1ccccc1Oc1ncccc1[N+](=O)[O-] | 27.3 (≈ 105 µM) |
| O=C1CN(S(=O)(=O)c2ccc(F)cc2)c2ccccc2N1 | > 45.9 |
| COc1ccc(NC(=S)Nc2cccc(C(C)=O)c2)cc1OC | > 49.6 |
| CCOc1ccccc1Nc1nc(-c2cccnc2)cs1 | 10.6 (≈ 35.6 µM) |
| Cc1c(C(=O)n2cnc3ccccc32)cccc1[N+](=O)[O-] | 39.8 (≈ 142 µM) |
| Cc1cc(C(=O)N2CCN(Cc3ccccc3)CC2)ccc1[N+](=O)[O-] | > 50.9 |
| CCN1CCC(N2CCN(c3ccc(Cl)cc3)CC2)CC1 | 15.7 (≈ 51 µM) |
| CNc1nc(Cl)nc(Nc2ccccc2)n1 | 2 (≈ 8.49 µM) |
| CCOc1ccc(/C=C2\SC(=O)N(c3ccc(O)cc3)C2=O)cc1OC | < 0.8 |
| CCCNS(=O)(=O)c1cc2c3c(c1)CCN3C(=O)CC2 | > 44.2 |
| Cn1c(=O)c2c(nc(NNC(=O)C(F)(F)F)n2C)n(C)c1=O | > 48 |
| O=C(COc1ccc(Cl)cc1[N+](=O)[O-])N1CCCCCC1 | > 46.9 |
| N#Cc1ccccc1Oc1ccccc1C=O | 31.6 (≈ 142 µM) |
| O=C(O)CCCCCCCCCC[n+]1ccccc1.[Br-] | 47.9 |
| CCOc1ccc(NC(=O)CN2C(=O)NC3(CCCCCC3)C2=O)cc1 | > 53.9 |
| Oc1ccc(NCc2cccc(OCc3ccccc3)c2)cc1 | 38.1 (≈ 125 µM) |
| Cc1ccc2oc(=O)n(Cc3ccccc3)c2c1 | 2.9 (≈ 12.1 µM) |
| O=C(CN1C(=O)NC2(CCCCCCC2)C1=O)Nc1cccc(Br)c1 | 8.2 (≈ 20.1 µM) |
| CCc1cc(C(=O)O)c(NC(=O)/C=C/c2ccc(OC)cc2)s1 | > 49.7 |
| O=C1c2ccccc2NC(c2cccc([N+](=O)[O-])c2)N1O (stereo not given) | > 42.8 |
| CCCC(=O)Nc1cc2c3c(c1)CCN3C(=O)CC2 | > 38.7 |
| CN(CCO)C(=O)C(c1ccccc1)c1ccccc1 | 36.2 (≈ 134 µM) |

| SMILES | solubility kinetic [µg/mL] |
| --- | --- |
| Cc1ccsc1C(=O)OC(C)C(=O)NC1CCCCC1C (stereo not given) | 6.4 (≈ 20.7 µM) |
| CC1(c2ccccc2)NC(=O)N(CC(=O)N2CCN(S(=O)(=O)c3c(F)cccc3F)CC2)C1=O (stereo not given) | 25 (≈ 50.8 µM) |
| Cc1ccc(CNC(=O)Nc2ccc(F)cc2)n1C | > 39.2 |
| CN(C)CCCNC(=O)c1cc(C(=O)c2ccc(F)cc2)c[nH]1 | > 47.6 |
| C=CCn1c(SC(F)F)nc2scc(-c3ccco3)c2c1=O | < 0.4 |
| O=C(NC1CCCCC1)c1ccc(-c2ccccc2F)o1 | 5 (≈ 17.4 µM) |
| COc1ccccc1C(=O)NCCSCc1ccccc1Cl | 15.1 (≈ 45 µM) |
| CCOc1ccc(C(=O)N2CCn3c2nc2ccccc23)cc1 | 6.4 (≈ 20.8 µM) |
| Cc1ccc(C)c(NC(=O)c2nc(Cl)ccc2Cl)c1 | 3.2 (≈ 10.8 µM) |
| Nc1nc(O)c(Sc2ccccc2[N+](=O)[O-])c(=O)[nH]1 | > 42 |
| COc1ccc(S(=O)(=O)N2CCc3ccccc32)cc1[N+](=O)[O-] | 6.4 (≈ 19.1 µM) |
| CN(C(=O)COC(=O)c1cc(=O)[nH]c2ccccc12)c1ccccc1 | 11.6 (≈ 34.5 µM) |
| N#C/C(=C\c1cccs1)C(=O)c1ccccc1Cl | > 41.1 |
| CC(CC(=O)NCCc1ccc(F)cc1)c1ccccc1 (stereo not given) | 39.3 (≈ 138 µM) |
| COC(=O)C(NC(C)=O)(Nc1cccc(C)n1)C(F)(F)F (stereo not given) | > 45.8 |
| COc1ccccc1NC(=O)/C=C/C(=O)O | > 33.2 |
| Cc1ccc(/C=C2/C(=O)ON=C2c2ccccc2)o1 | 38 (≈ 150 µM) |
| CC(=O)c1ccc(OCC(O)CNCc2ccc3c(c2)OCO3)cc1 (stereo not given) | 46.2 (≈ 135 µM) |
| O=C(CSc1nncs1)NC1CCCCCCC1 | > 42.8 |
| CN(C)c1nc(N(C)C)nc(N(C#N)CCCl)n1 | 19.2 (≈ 71.2 µM) |
| CC(C)N1CCN(Cc2nc3c(s2)CCCC3)CC1CCO (stereo not given) | 41.4 (≈ 128 µM) |
| O=C(c1cc2ccccc2o1)N1CCOCC1 | > 34.7 |
| CSc1ccccc1NC(=O)CN(C)CC(=O)Nc1ccc(S(=O)(=O)N2CCCC2)cc1 | 1.3 (≈ 2.73 µM) |
| COc1ccc(/C=C/C(=O)Nc2cccnc2Cl)cc1 | 8.9 (≈ 30.8 µM) |

| SMILES | solubility kinetic [µg/mL] |
| --- | --- |
| N#Cc1c(N)n(-c2ccccc2N)c2nc3ccccc3nc12 | 5.4 (≈ 18 µM) |
| CC(=O)C1=C(O)C(=O)N(c2ccc(F)cc2)C1c1ccc(C)cc1 (stereo not given) | > 48.8 |
| O=C(CSc1cccc[n+]1[O-])c1ccc(Cl)s1 | 38.3 (≈ 134 µM) |
| O=c1[nH]c(=S)[nH]c2nc(-c3cccs3)cc(C(F)(F)F)c12 | 4.8 (≈ 14.6 µM) |
| COCCOC(=O)C1=C(C)NC(=O)NC1c1cccc(F)c1 (stereo not given) | > 46.2 |
| Cc1ccccc1N=CC1=C(O)c2ccccc2C1=O | < 0.6 |
| COc1ccccc1CNC(=O)COC(=O)c1ccncc1 | > 45 |
| C=CCc1ccc(OCCCNC2CCCC2)c(OC)c1 | 35.6 (≈ 123 µM) |
| Cc1ccc(-c2onc3ccc(Br)cc23)cc1 | < 0.6 |
| COc1cccc(C2Nc3cccc4cccc(c34)N2)c1 | 11.5 (≈ 41.6 µM) |
| Cc1nc(-c2ccc3c(c2)OCCCO3)cs1 | 29.1 (≈ 118 µM) |
| CCCNC(=O)Nc1cccc(C(=O)OC)c1 | > 35.4 |
| NC(=O)CNC(=O)c1ccc(Cl)cc1 | > 31.9 |
| O=C(OCC(=O)N1CCCC1=O)C1COc2ccccc2O1 (stereo not given) | > 45.8 |
| O=S(=O)(Cc1ccccc1)NCCc1cccc(Cl)c1 | 40.5 (≈ 131 µM) |
| COc1cc(CCN)ccc1O.Cl | > 30.6 |
| CC1(C)CC(=O)N(c2cccc(Cl)c2)C(=O)C1 | > 37.8 |
| CC(=O)Nc1ccccc1C(=O)C(=O)NCCc1ccccc1 | 40.5 (≈ 130 µM) |
| O=c1nc(Nc2ccc([N+](=O)[O-])cc2)[nH]c(=O)[nH]1 | 26.2 (≈ 105 µM) |
| Cc1cccc(NC(=O)C(=O)NCC2CCCO2)c1 (stereo not given) | > 39.3 |
| COc1ccc(-n2c(=S)[nH]c3ncccc3c2=O)cc1 | 1.5 (≈ 5.26 µM) |
| CCOc1c(Nc2cccc(Cl)c2)c(=O)c1=O | > 37.8 |
| O=c1[nH]c(SCc2cccc(F)c2)nc2ccccc12 | < 0.3 |
| O=C(COC(=O)c1ccccc1)NC1CCCCCC1 | 39.7 (≈ 144 µM) |
